These results are taken from patent US9557319B2, “Cell-based arrays, methods of making, and methods of using” (University of Florida Research Foundation, Inc., priority 2010, dated 2017).

One data set has as its system HCT116 cells. The data set is described as follows: HCT116 cell number (Hoechst nuclear stain) on drug-loaded microarray. The data set is classed as cell-based, human. An excerpt:
The following figures (FIGS. 5.1 to 5.4) are micrographs taken from drug-eluting cellular microarrays, manufactured as described herein. The images are taken from individual cellular islands from the same array under various drug-loading conditions over a period of three days. HCT116 cells are nuclear stained with Hoechst for easy visibility. […] The water phase for this experiment was loaded with azide at various concentrations in addition to a control with no drug loaded. Azide is a useful probe reagent, mutagen, and preservative. Azide inhibits cytochrome oxidase by binding irreversibly to the heme cofactor in a process similar to the action of carbon monoxide. As such, it is expected to induce necrosis in cells at physiologically relevant doses.
To establish microarray fidelity, microarrays were manufactured as described above. HCT116 cells were then seeded over microarrays and incubated for 24 or 72 h. Microarrays were fixed in 4% paraformaldehyde and stained with Hoechst 34580 dye.
Camptothecin-loaded microarrays were stained with Annexin V (BD Pharminigen), fixed in 4% paraformaldehyde, and placed in PBS with Hoechst dye 34580 (Invitrogen, USA) for 30 min. Azide-loaded microarrays were fixed with 4% paraformaldehyde and incubated with PBS containing Hoechst 34580 dye. Finally, nutlin-3a-loaded microarrays were fixed with 4% paraformaldehyde, stained with BrdU (BD Bioscience, San Jose, Calif.), and incubated in PBS containing Hoechst 34580 dye. All arrays were mounted with Fluoro-Gel (Electron Microscope Sciences, Hatfield, Pa.) and imaged using an Axiovert 200M microscope (Carl Zeiss, Oberkochen, Germany). Analysis was performed with Axiovision (Carl Zeiss, Oberkochen, Germany) by quantifying, in each drug-eluting island, the area of fluorescence and reported as relative fluorescence intensity (RFI).

Data set [1] is described as follows: Loading efficiency of small molecules in microarrayed EVA films. In kind it is physicochemical. As for the experimental part:
To embed molecules into the polymer matrix, they were first dissolved in an appropriate solvent, depending on their respective hydrophobicity. A stock solution of azide (99%, Acros), a hydrophilic molecule, was dissolved in dH2O whereas Nutlin-3a (EMD Chemicals, Gibbstown, N.J.) and camptothecin (Sigma), both hydrophobic molecules, were dissolved in DMSO. Dissolved drugs were then added to 5% EVA at a 1:10 ratio of solvent:EVA. Prior to printing, polymer mixtures were vortexed for 30 s and then homogenized for 1 min before being loaded onto the source plate of the robotic mini-arrayer.
To determine the loading efficiency of factors, polymer formulations were made as described above. Films derived from 100 μl EVA loaded with factors were then made on glass coverslips and allowed to dry overnight under vacuum. Films were removed from the glass substrates and weighed. Films were washed briefly with PBS before being placed in 1 ml toluene to dissolve the polymer. Samples were then analyzed using a Nanodrop-ND-1000 spectrophotometer. Standard curves were generated for each factor, and loading efficiency was calculated as the percent of drug embedded in the polymer compared to the theoretical drug concentration.

Consider `[N-]=[N+]=[N-]` [Azide], for which the “response of HCT116 cell density on azide-loaded ELVAX islands” value in the data set on HCT116 cells (37.5 and 75 mM azide, 5-68 h) is given as “dose-dependent response”. The “cell counts of HCT116 on drug-loaded film after attachment” value in the data set with HCT116 cells (1 h after seeding, across loading concentrations, ANOVA p=0.490) is listed as “No statistical difference”. In the data set with HCT116 cells (after 24 h), the “HCT116 cell numbers vs drug loading concentration” value is on record as “decreased with increasing loading concentrations”. Moreover, the “Loading efficiency (%)” value in data set [1] is 73 +/− 8%.
